Earlier results as cited in patent EP0501250A1, “Fucose-marked batracylin derivatives” (BAYER AG, priority 1991, dated 1992).

Key:
[1] = prior-art statement
Colon-38-Modell = Colon-38-Modell an der Maus

What does the source list for `Nc1ccc2c(c1)CN1C(=O)c3ccccc3C1=N2` [Batracylin]?
Löslichkeit in wasserhaltigen Lösungsmitteln [1]: geringe Löslichkeit; Antitumorwirkung (Colon-38-Modell): ausgezeichnete Antitumorwirkung
